Among the data in US9428508B2, “2,4-diamino-6,7-dihydro-5H-pyrrolo[2,3]pyrimidine derivatives as FAK/Pyk2 inhibitors” (Centaurus BioPharma Co., Ltd., priority 2011, dated 2016) are IC50 values, retold here.

Where only a bound is given, the exact number is not on record here.

One test concerns the target PYK2 (Homo sapiens (Human), UniProt Q14289). The test can be described thus: Biochemical assay for PYK2 activity (LANCE TR-FRET, ULight-poly Glu,Ala,Tyr substrate). The following applies: GST-tagged PYK2, 40 min reaction. The procedure, abridged: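 GST-tagged human PYK2 (2 nM working stock) with ULight-poly Glu,Ala,Tyr (1:1:1) peptide (666 nM working stock) and ATP (46.6 μM working stock) in 40 mM Tris pH 7.5, MgCl2, 1 mM DTT, 1 mM CHAPS; 40 min reaction, EDTA quench. Phosphotyrosine read by LANCE Eu-anti-phosphotyrosine (PY20) TR-FRET after 60 min; 12-point 3-fold compound dilutions.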
(In general: TR-FRET usually uses a lanthanide donor and a delayed reading to cut background.)

The target in another test is FAK (Homo sapiens (Human), UniProt Q05397). The test can be described thus: Biochemical assay for FAK activity (LANCE TR-FRET, ULight-poly Glu,Ala,Tyr substrate). The conditions noted are these: GST-tagged FAK, 120 min reaction. The method in brief: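 GST-tagged FAK (2.5 nM working stock) with ULight-poly Glu,Ala,Tyr (666 nM stock) and ATP (33.3 μM stock) in Tris pH 7.5/MgCl2/DTT/CHAPS buffer with BSA, 120 min; EDTA-quenched. Phosphorylation read by TR-FRET with Eu-anti-phosphotyrosine (PY20) antibody after 60 min. Compounds tested as 12-point 3-fold dilutions.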
Chain of FAK (Q05397 whole entry): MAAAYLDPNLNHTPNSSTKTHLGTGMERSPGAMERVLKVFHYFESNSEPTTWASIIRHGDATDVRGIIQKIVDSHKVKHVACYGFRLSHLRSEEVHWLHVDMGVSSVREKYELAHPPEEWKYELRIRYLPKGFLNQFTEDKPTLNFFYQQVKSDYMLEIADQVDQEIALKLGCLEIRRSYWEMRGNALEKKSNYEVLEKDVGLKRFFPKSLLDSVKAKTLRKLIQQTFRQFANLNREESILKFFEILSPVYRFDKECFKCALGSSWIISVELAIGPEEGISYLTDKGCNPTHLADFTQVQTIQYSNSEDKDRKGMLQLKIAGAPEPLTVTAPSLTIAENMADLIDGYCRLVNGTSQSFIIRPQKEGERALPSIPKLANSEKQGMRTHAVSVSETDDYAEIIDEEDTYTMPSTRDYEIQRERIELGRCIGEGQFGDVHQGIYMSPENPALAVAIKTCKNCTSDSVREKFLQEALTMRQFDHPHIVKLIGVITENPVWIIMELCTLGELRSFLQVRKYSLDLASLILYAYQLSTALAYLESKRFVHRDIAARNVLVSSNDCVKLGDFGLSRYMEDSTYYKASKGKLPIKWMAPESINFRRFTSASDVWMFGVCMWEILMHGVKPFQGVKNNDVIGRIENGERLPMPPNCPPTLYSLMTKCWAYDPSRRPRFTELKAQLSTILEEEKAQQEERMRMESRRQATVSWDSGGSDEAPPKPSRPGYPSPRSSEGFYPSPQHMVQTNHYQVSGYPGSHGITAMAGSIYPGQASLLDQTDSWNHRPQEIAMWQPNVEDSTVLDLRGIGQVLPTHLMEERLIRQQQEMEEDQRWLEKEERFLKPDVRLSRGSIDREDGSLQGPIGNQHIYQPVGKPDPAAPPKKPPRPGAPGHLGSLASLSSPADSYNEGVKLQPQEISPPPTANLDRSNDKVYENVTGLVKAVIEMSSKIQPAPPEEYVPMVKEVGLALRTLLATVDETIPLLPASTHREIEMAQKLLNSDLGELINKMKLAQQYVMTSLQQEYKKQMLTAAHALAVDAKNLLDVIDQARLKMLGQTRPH

Chain of PYK2 (Q14289 whole entry): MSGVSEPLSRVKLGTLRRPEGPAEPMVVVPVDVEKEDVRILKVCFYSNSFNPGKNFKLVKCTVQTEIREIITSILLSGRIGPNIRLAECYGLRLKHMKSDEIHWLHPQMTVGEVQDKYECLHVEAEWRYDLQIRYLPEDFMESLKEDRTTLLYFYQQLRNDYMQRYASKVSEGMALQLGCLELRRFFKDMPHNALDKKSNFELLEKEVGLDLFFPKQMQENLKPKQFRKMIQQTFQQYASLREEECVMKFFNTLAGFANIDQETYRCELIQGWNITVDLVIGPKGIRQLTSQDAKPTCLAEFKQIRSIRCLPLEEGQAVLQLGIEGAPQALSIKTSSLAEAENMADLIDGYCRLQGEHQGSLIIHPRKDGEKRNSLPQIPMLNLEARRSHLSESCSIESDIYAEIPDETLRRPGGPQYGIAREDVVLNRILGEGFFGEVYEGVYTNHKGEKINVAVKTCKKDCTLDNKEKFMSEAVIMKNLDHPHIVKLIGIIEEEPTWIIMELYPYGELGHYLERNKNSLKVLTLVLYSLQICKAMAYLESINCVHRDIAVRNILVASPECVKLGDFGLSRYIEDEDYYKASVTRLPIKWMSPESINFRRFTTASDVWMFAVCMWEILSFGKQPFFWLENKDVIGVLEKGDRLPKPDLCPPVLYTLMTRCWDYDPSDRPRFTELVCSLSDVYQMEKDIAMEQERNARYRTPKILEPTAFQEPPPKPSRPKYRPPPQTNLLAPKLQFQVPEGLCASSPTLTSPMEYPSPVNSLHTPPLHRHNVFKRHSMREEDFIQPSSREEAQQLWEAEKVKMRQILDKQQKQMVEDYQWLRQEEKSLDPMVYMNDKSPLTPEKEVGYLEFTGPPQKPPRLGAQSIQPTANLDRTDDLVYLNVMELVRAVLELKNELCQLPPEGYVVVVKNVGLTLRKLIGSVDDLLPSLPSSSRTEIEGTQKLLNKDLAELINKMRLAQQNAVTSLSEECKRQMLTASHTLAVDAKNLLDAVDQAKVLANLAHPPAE

A word on the IC50: it is the point on the concentration scale where inhibition reaches its midpoint. Read a low IC50 as inhibition by little substance. On to `COc1cc(N2CCC(N3CCNCC3)CC2)ccc1Nc1nc2c(c(Nc3ccccc3S(=O)(=O)NC(C)C)n1)CCN2` [Example 97, N-isopropyl-2-(2-(2-methoxy-4-(4-(piperazin-1-yl)piperidin-1-yl)phenylamino)-6,7-dihydro-5H-pyrrolo[2,3-d]pyrimidin-4-ylamino)benzenesulfonamide], for which the values for the IC50 on PYK2 and against FAK were under 500 nM and under 100 nM, respectively.

As to `COc1cc(N2CCOCC2)ccc1Nc1nc2c(c(Nc3ccccc3S(=O)(=O)C(C)C)n1)CCN2` [Example 100, N^4-(2-(isopropylsulfonyl)phenyl)-N^2-(2-methoxy-4-morpholinophenyl)-6,7-dihydro-5H-pyrrolo[2,3-d]pyrimidine-2,4-diamine], the concentration for half-maximal inhibition (IC50) is under 50 nM against PYK2 and under 20 nM against FAK.

Consider `COc1cc(N2CCOCC2)ccc1Nc1nc2c(c(Nc3ccccc3S(=O)(=O)NC(C)C)n1)C(C)CN2` (stereo not shown) [Example 101, N-isopropyl-2-(2-(2-methoxy-4-morpholinophenylamino)-5-methyl-6,7-dihydro-5H-pyrrolo[2,3-d]pyrimidin-4-ylamino)benzenesulfonamide], for which the IC50 against PYK2 and at FAK was under 20 nM in each case.

Consider `CNC(=O)c1ccccc1Nc1nc(Nc2ccc(N3CCOCC3)cc2OC)nc2c1[C@@H](C)CN2` [Example 102, (R)-2-(2-(2-methoxy-4-morpholinophenylamino)-5-methyl-6,7-dihydro-5H-pyrrolo[2,3-d]pyrimidin-4-ylamino)-N-methylbenzamide], for which the IC50 at PYK2 was under 50 nM; on FAK it was under 20 nM.

On to `CNS(=O)(=O)c1ccccc1Nc1nc(Nc2ccc(N3CCOCC3)cc2OC)nc2c1C(C)(C)CN2` [Example 103, 2-(2-(2-methoxy-4-morpholinophenylamino)-5,5-dimethyl-6,7-dihydro-5H-pyrrolo[2,3-d]pyrimidin-4-ylamino)-N-methylbenzenesulfonamide], for which the IC50 against PYK2 and against FAK was under 20 nM throughout.

Consider `COc1cc(N2CCOCC2)ccc1Nc1nc2c(c(Nc3ccccc3S(=O)(=O)NC3CCC3)n1)C(C)(C)CN2` [Example 104, N-cyclobutyl-2-(2-(2-methoxy-4-morpholinophenylamino)-5,5-dimethyl-6,7-dihydro-5H-pyrrolo[2,3-d]pyrimidin-4-ylamino)benzenesulfonamide], for which the IC50 on PYK2 and on FAK was under 20 nM throughout.

Consider `COc1cc(N2CCOCC2)ccc1Nc1nc2c(c(Nc3ccccc3S(=O)(=O)NC(C)C)n1)C(C)(C)CN2` [Example 105, N-isopropyl-2-(2-(2-methoxy-4-morpholinophenylamino)-5,5-dimethyl-6,7-dihydro-5H-pyrrolo[2,3-d]pyrimidin-4-ylamino)benzenesulfonamide], for which the IC50 at PYK2 and at FAK was under 20 nM in each case.

With `CCCNS(=O)(=O)c1ccccc1Nc1nc(Nc2ccc(N3CCOCC3)cc2OC)nc2c1C(C)(C)CN2` [Example 106, 2-(2-(2-methoxy-4-morpholinophenylamino)-5,5-dimethyl-6,7-dihydro-5H-pyrrolo[2,3-d]pyrimidin-4-ylamino)-N-propylbenzenesulfonamide], the half-inhibitory concentration (IC50) at PYK2 and against FAK was under 20 nM in each case.

In the case of `COc1cc(N2CCOCC2)ccc1Nc1nc2c(c(Nc3ccccc3S(=O)(=O)NCC(C)C)n1)C(C)(C)CN2` [Example 107, N-isobutyl-2-(2-(2-methoxy-4-morpholinophenylamino)-5,5-dimethyl-6,7-dihydro-5H-pyrrolo[2,3-d]pyrimidin-4-ylamino)benzenesulfonamide], the IC50 against PYK2 and against FAK was under 20 nM each time.

Consider `COc1cc(N2CCOCC2)ccc1Nc1nc2c(c(Nc3ccccc3S(=O)(=O)NC3CCCC3)n1)C(C)(C)CN2` [Example 108, N-cyclopentyl-2-(2-(2-methoxy-4-morpholinophenylamino)-5,5-dimethyl-6,7-dihydro-5H-pyrrolo[2,3-d]pyrimidin-4-ylamino)benzenesulfonamide], for which the IC50 is under 500 nM at PYK2 and under 200 nM against FAK.

Regarding `COc1cc(N2CCOCC2)ccc1Nc1nc2c(c(Nc3ccccc3S(=O)(=O)NC3CCCCC3)n1)C(C)(C)CN2` [Example 109, N-cyclohexyl-2-(2-(2-methoxy-4-morpholinophenylamino)-5,5-dimethyl-6,7-dihydro-5H-pyrrolo[2,3-d]pyrimidin-4-ylamino)benzenesulfonamide], the IC50 against PYK2 and against FAK was under 200 nM throughout.

For `CCCCNS(=O)(=O)c1ccccc1Nc1nc(Nc2ccc(N3CCOCC3)cc2OC)nc2c1C(C)(C)CN2` [Example 110, N-butyl-2-(2-(2-methoxy-4-morpholinophenylamino)-5,5-dimethyl-6,7-dihydro-5H-pyrrolo[2,3-d]pyrimidin-4-ylamino)benzenesulfonamide], the IC50 at PYK2 and at FAK was under 20 nM in each case.

With `COc1cc(N2CCOCC2)ccc1Nc1nc2c(c(Nc3ccccc3S(=O)(=O)N(C)C)n1)C(C)(C)CN2` [Example 111, 2-(2-(2-methoxy-4-morpholinophenylamino)-5,5-dimethyl-6,7-dihydro-5H-pyrrolo[2,3-d]pyrimidin-4-ylamino)-N,N-dimethylbenzenesulfonamide], the IC50 against PYK2 and against FAK was under 20 nM each time.

For `CCC(C)NS(=O)(=O)c1ccccc1Nc1nc(Nc2ccc(N3CCOCC3)cc2OC)nc2c1C(C)(C)CN2` (stereo not shown) [Example 112, N-sec-butyl-2-(2-(2-methoxy-4-morpholinophenylamino)-5,5-dimethyl-6,7-dihydro-5H-pyrrolo[2,3-d]pyrimidin-4-ylamino)benzenesulfonamide], the IC50 on PYK2 and against FAK was under 20 nM throughout.

`CCNS(=O)(=O)c1ccccc1Nc1nc(Nc2ccc(N3CCOCC3)cc2OC)nc2c1C(C)(C)CN2` [Example 113, N-ethyl-2-(2-(2-methoxy-4-morpholinophenylamino)-5,5-dimethyl-6,7-dihydro-5H-pyrrolo[2,3-d]pyrimidin-4-ylamino)benzenesulfonamide]: the IC50 against PYK2 and against FAK was under 20 nM throughout.

`COCCCNS(=O)(=O)c1ccccc1Nc1nc(Nc2ccc(N3CCOCC3)cc2OC)nc2c1C(C)(C)CN2` [Example 114, 2-(2-(2-methoxy-4-morpholinophenylamino)-5,5-dimethyl-6,7-dihydro-5H-pyrrolo[2,3-d]pyrimidin-4-ylamino)-N-(3-methoxypropyl)benzenesulfonamide]: the IC50 on PYK2 and at FAK was under 20 nM throughout.

With `COCCNS(=O)(=O)c1ccccc1Nc1nc(Nc2ccc(N3CCOCC3)cc2OC)nc2c1C(C)(C)CN2` [Example 115, 2-(2-(2-methoxy-4-morpholinophenylamino)-5,5-dimethyl-6,7-dihydro-5H-pyrrolo[2,3-d]pyrimidin-4-ylamino)-N-(2-methoxyethyl)benzenesulfonamide], the IC50 against PYK2 and against FAK was under 20 nM in each case.

With `COc1cc(N2CCOCC2)ccc1Nc1nc2c(c(Nc3ccccc3S(=O)(=O)Nc3ccccc3)n1)C(C)(C)CN2` [Example 116, 2-(2-(2-methoxy-4-morpholinophenylamino)-5,5-dimethyl-6,7-dihydro-5H-pyrrolo[2,3-d]pyrimidin-4-ylamino)-N-phenylbenzenesulfonamide], the figures for the IC50 at PYK2 and at FAK were under 500 nM and under 200 nM, respectively.

For the compound `COc1cc(N2CCOCC2)ccc1Nc1nc2c(c(Nc3ccccc3S(=O)(=O)NC(C)(C)C)n1)C(C)(C)CN2` [Example 117, N-tert-butyl-2-(2-(2-methoxy-4-morpholinophenylamino)-5,5-dimethyl-6,7-dihydro-5H-pyrrolo[2,3-d]pyrimidin-4-ylamino)benzenesulfonamide], the IC50 at PYK2 and against FAK was under 20 nM in each case.

Take `COc1cc(N2CCOCC2)ccc1Nc1nc2c(c(Nc3ccccc3S(=O)(=O)NCC3CC3)n1)C(C)(C)CN2` [Example 118, N-(cyclopropylmethyl)-2-(2-(2-methoxy-4-morpholinophenylamino)-5,5-dimethyl-6,7-dihydro-5H-pyrrolo[2,3-d]pyrimidin-4-ylamino)benzenesulfonamide]: the IC50 on PYK2 and at FAK was under 50 nM in each case.

For `COc1cc(N2CCOCC2)ccc1Nc1nc2c(c(Nc3ccccc3S(=O)(=O)NCCO)n1)C(C)(C)CN2` [Example 119, N-(2-hydroxyethyl)-2-(2-(2-methoxy-4-morpholinophenylamino)-5,5-dimethyl-6,7-dihydro-5H-pyrrolo[2,3-d]pyrimidin-4-ylamino)benzenesulfonamide], the results for the half-maximal inhibitory concentration (IC50) on PYK2 and against FAK were under 200 nM and under 500 nM, respectively.

`COc1cc(N2CCOCC2)ccc1Nc1nc2c(c(Nc3ccccc3S(=O)(=O)NCCN(C)C)n1)C(C)(C)CN2` [Example 120, N-(2-(dimethylamino)ethyl)-2-(2-(2-methoxy-4-morpholinophenylamino)-5,5-dimethyl-6,7-dihydro-5H-pyrrolo[2,3-d]pyrimidin-4-ylamino)benzenesulfonamide]: the values for the IC50 on PYK2 and at FAK were under 50 nM and under 20 nM, respectively.

`COc1cc(N2CCOCC2)ccc1Nc1nc2c(c(Nc3ccccc3C(=O)N3CCCC3)n1)C(C)(C)CN2` [Example 121, (2-(2-(2-methoxy-4-morpholinophenylamino)-5,5-dimethyl-6,7-dihydro-5H-pyrrolo[2,3-d]pyrimidin-4-ylamino)phenyl)(pyrrolidin-1-yl)methanone]: the IC50 on PYK2 and against FAK was under 200 nM in each case.
